Data taken from article PMC10758931 (RSC Advances, 2024).
≈ marks a conversion by molar mass, not a printed value.

Experiments:
MCF-7 cell line = assay: Cytotoxic activity; type: cell-based; conditions: for CC50: Homo sapiens, MCF7, read-out: LC50, MCF-7 cell line; for SI (Selectivity index = LC50 value normal cell/LC50 value cancer cell): Vero / MCF-7
normal Vero cell line = assay: Cytotoxic activity; type: cell-based; conditions: MTT, mean ± standard error of three experiments

Compound | CC50 (MCF-7 cell line) [µg/mL] | SI (Selectivity index = LC50 value normal cell/LC50 value cancer cell) (MCF-7 cell line) | LC50, MCF-7 cell line (MCF-7 cell line; MCF-7, MTT, mean ± standard error of three experiments) [µg/mL] | LC50, Vero (normal Vero cell line) [µg/mL]
Cc1nn(-c2ccccc2)c2c1C(c1ccc(Cl)cc1)N(C(=O)c1ccncc1)N2 (stereo not drawn) [Compound 1b] | 22.1 ± 0.04 (≈ 53.1 µM) | 2.95 |  | 
Cc1nn(-c2ccccc2)c2c1C(c1ccc(O)cc1)N(C(=O)c1ccncc1)N2 (stereo not drawn) [Compound 1c] | 70.1 ± 0.05 (≈ 176 µM) | 1.05 |  | 
Cc1nn(-c2ccccc2)c2c1C(c1ccc([N+](=O)[O-])cc1)N(C(=O)c1ccncc1)N2 (stereo not drawn) [Compound 1d] | 91.1 ± 0.06 (≈ 214 µM) | 0.91 |  | 
COc1ccc(C2c3c(C)nn(-c4ccccc4)c3NN2C(=O)c2ccncc2)cc1 (stereo not drawn) [Compound 1e] | 23.62 ± 0.02 (≈ 57.4 µM) | 3.36 |  | 
Cc1nn(-c2ccccc2)c2c1C(c1ccc(N(C)C)cc1)N(C(=O)c1ccncc1)N2 (stereo not drawn) [Compound 1f] | 19.92 ± 0.01 (≈ 46.9 µM) | 4.12 |  | 
CC(C)=CCCC(C)=CC1c2c(C)nn(-c3ccccc3)c2NN1C(=O)c1ccncc1 (stereo not drawn) [Compound 1g] | 30.82 ± 0.04 (≈ 72.1 µM) |  |  | 
Cc1nn(-c2ccccc2)c2c1C(c1c[nH]c3ccccc13)N(C(=O)c1ccncc1)N2 (stereo not drawn) [Compound 1h] | 21.43 ± 0.03 (≈ 51 µM) |  |  | 
Cc1nn(-c2ccccc2)c2c1C(c1ccco1)N(C(=O)c1ccncc1)N2 (stereo not drawn) [Compound 1i] | 26.66 ± 0.05 (≈ 71.8 µM) |  |  | 
Cc1nn(-c2ccccc2)c2c1C(c1ccccn1)N(C(=O)c1ccncc1)N2 (stereo not drawn) [Compound 1j] | 57.34 ± 0.08 (≈ 150 µM) | 1.45 |  | 
Cc1nn(-c2ccccc2)c2c1C(c1cncs1)N(C(=O)c1ccncc1)N2 (stereo not drawn) [Compound 1k] | 62.34 ± 0.07 (≈ 160 µM) | 1.25 |  | 
COc1cccc2c1C(=O)c1c(O)c3c(c(O)c1C2=O)C[C@@](O)(C(=O)CO)C[C@@H]3O[C@H]1C[C@H](N)[C@H](O)[C@H](C)O1 [Doxorubicin, doxorubicin, reference compound] | 0.65 ± 0.01 (≈ 1.2 µM) | 32.38 |  | 
(3-(4-chlorophenyl)-4-methyl-6-phenyl pyrazolo[3,4-c]pyrazol-2(1H,3H,6H)-yl)(pyridin-4-yl)methanone [Compound 1a] |  |  | 78.10 ± 0.02 | 55.02 ± 0.11
